According to PMC8125234, “Cardiolipin Stabilizes and Increases Catalytic Efficiency of Carnitine Palmitoyltransferase II and Its Variants S113L, P50H, and Y479F” (International Journal of Molecular Sciences, 2021):
Changes are numbered by the printed parent chain. Entries after “also recorded” stand apart in the source; their conditions may differ.

Key:
CPT II variant P50H = molecular target: T1, CPT II variant P50H (Homo sapiens, UniProt P23786, P50H); test: Lipid binding assay (membrane lipid strips); conditions: 0.4 mg enzyme, 100 pmol lipid spots
T1 construct: made in house; host or cells: Escherichia coli BL21Gold DE
T1 sequence (P23786 26-658 P50H): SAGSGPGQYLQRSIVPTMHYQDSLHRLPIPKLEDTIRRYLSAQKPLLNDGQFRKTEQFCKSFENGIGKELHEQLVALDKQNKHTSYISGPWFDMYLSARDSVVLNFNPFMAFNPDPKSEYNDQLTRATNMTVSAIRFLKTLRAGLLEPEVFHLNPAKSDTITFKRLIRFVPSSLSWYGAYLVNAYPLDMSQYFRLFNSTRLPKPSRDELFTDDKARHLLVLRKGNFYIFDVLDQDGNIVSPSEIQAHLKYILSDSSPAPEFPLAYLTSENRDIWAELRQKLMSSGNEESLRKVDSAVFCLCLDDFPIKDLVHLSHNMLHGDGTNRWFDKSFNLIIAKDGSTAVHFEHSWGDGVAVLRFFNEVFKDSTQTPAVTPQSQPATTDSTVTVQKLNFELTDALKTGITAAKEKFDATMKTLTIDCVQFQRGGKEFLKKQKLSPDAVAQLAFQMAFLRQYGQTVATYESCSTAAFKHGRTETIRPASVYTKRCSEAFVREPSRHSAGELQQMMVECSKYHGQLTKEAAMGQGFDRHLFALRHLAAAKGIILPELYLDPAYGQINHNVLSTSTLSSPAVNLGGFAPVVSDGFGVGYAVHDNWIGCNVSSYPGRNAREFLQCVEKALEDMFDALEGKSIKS
Procedure: (§1) Direct interaction of CPT II WT and variants with phospholipids of the mitochondrial membrane was assessed using membrane lipid strips (Echelon Biosciences, Salt Lake City, Utah, USA). The membrane was spotted with 100 pmol of various cell membrane lipids. The assay was performed following manufacturer’s instructions with some modifications explained in the following. At first, the membrane was washed twice in phosphate buffered saline (PBS). After 1 h incubation with blocking solution (3% BSA fatty acid-free in PBS) at room temperature, the membrane was incubated with purified CPT II WT or variant (final amount 0.4 mg protein) for 2 h at 4 °C. After three washing steps, a-His-Probe (H3) mouse monoclonal antibody (Santa Cruz Biotech, Santa Cruz, CA, USA, 1:1000 dilution in PBS containing 3% BSA) was added to the membrane over night at 4 °C. The membrane was washed three times with PBS and incubated with mouse IgG horseradish peroxidase-linked whole antibody (from sheep, Amersham, Little Chalfont, Buckinghamshire, UK) for 1 h at 4 °C. The interaction was visualized by ECL Western blotting detection reagents (Amersham, Little Chalfont, Buckinghamshire, UK).

CPT II WT = molecular target: T2, CPT II WT (Homo sapiens, UniProt P23786); test: Lipid binding assay (membrane lipid strips); conditions: 0.4 mg enzyme, 100 pmol lipid spots
T2 construct: made in house; host or cells: Escherichia coli BL21Gold DE
T2 sequence (P23786 26-658): T1 sequence (P23786 26-658 P50H) with H25P
Procedure: as §1

Signal for interaction on membrane lipid strips (CPT II variant P50H): lowest; also recorded: clearly proven
Signal for interaction on membrane lipid strips (CPT II WT): clearly proven
Substance: Cardiolipin [CL]
